Source: patent publication US9890118B2, “Prostamides for the treatment of glaucoma and related diseases” (Allergan, Inc., priority 2004, dated 2018)
Marks after values point to notes of the source that are not given here.

Test system: dogs (Beagle)
Experiment: Intraocular pressure studies by pneumatonometry in conscious dogs
Type: in vivo
Conditions: topical 25 μL drop, 0.03% drug in 0.1% polysorbate 80:10 mM TRIS, one eye; for Change in Intraocular Pressure (IOP), 0 hrs: 0 hrs (just before drug administration); for Change in Intraocular Pressure (IOP), 2 hrs: 2 hrs after dosing; for Change in Intraocular Pressure (IOP), 4 hrs: 4 hrs after dosing; for Change in Intraocular Pressure (IOP), 6 hrs: 6 hrs after dosing; for Change in Intraocular Pressure (IOP), 24 hrs: 24 hrs after dosing
Method: Intraocular pressure studies were carried out for compounds 1-3 by pneumatonometry in dogs (Beagle) of both sexes (10-15 kg). The animals remained conscious throughout the study and were gently restrained by hand. Drugs were administered topically to one eye as a 25 μL volume drop comprising 0.03% drug, 0.1% polysorbate 80:10 mM TRIS, the other eye received 0.1% polysorbate 80:10 mM TRIS. Proparacaine (0.1%) was used for corneal anesthesia during tonometry. Intraocular pressure was determined just before drug administration and at 2, 4 and 6 hours thereafter on each day of the 5 day study. […] Drug was administered immediately after the first IOP reading.

| SMILES | Change in Intraocular Pressure (IOP), 0 hrs | Change in Intraocular Pressure (IOP), 2 hrs | Change in Intraocular Pressure (IOP), 4 hrs | Change in Intraocular Pressure (IOP), 6 hrs | Change in Intraocular Pressure (IOP), 24 hrs |
| --- | --- | --- | --- | --- | --- |
| CCCCC[C@H](O)/C=C/[C@@H]1[C@@H](C/C=C\CCCC(=O)NCCc2ccc(OC(C)=O)c(OC(C)=O)c2)[C@@H](O)C[C@H]1O [Compound 1, acetic acid 2-acetoxy-5-(2-{(Z)-7-[(1R,2R,3R,5S)-3,5-dihydroxy-2-((E)-(S)-3-hydroxy-oct-1-enyl)-cyclopenyl]-hept-5-enoylamino}-ethyl)-phenyl ester] | 0 | −4.4** | −3.4** | −3.1** | −1.4* |
| CCCCC[C@H](O)/C=C/[C@@H]1[C@@H](C/C=C\CCCC(=O)NCCc2ccc(O)c(O)c2)[C@@H](O)C[C@H]1O [Compound 2, (Z)-7-[(1R,2R,3R,5S)-3,5-Dihydroxy-2-((E)-(S)-3-hydroxy-oct-1-enyl)-cyclopentyl]-hept-5-enoic acid [2-(3,4-dihydroxy-phenyl)-ethyl]-amide] | 0 | −3.8* | −3.2** | −3.2** | −1.1* |
| CCCCC[C@H](O)/C=C/[C@@H]1[C@@H](C/C=C\CCCC(=O)NCCc2c[nH]c3ccc(O)cc23)[C@@H](O)C[C@H]1O [Compound 3, (Z)-7-[(1R,2R,3R,5S)-3,5-Dihydroxy-2-((E)-(S)-3-hydroxy-oct-1-enyl)-cyclopentyl]-hept-5-enoic acid [2-(5-hydroxy-1H-indol-3-yl)-ethyl]-amide] | 0 | −3.2* | −5.8* | −7.6** | −2.2 |
